Test results taken from ChEMBL document CHEMBL1212741, “Comparative efficacies of two antimony regimens to treat Leishmania braziliensis-induced cutaneous Leishmaniasis in rhesus macaques (Macaca mulatta)” (Antimicrob Agents Chemother, 2010).
The source made the active and inactive calls. The rule behind the calls is not given here.

How the values were obtained:
[1] = Drug level in liver of Leishmania braziliensis MHOM/BR/2000/CP13396 infected rhesus monkey at 5 mg/kg, im qd for 21 days administered 9 weeks postinfection measured 55 days after compound dosing; assay type: ADME, organism-based, Macaca mulatta; design: dose 5 mg/kg, route intramuscular; conditions: in vivo, 1320 h
[2] = Drug level in spleen of Leishmania braziliensis MHOM/BR/2000/CP13396 infected rhesus monkey at 5 mg/kg, im qd for 21 days administered 9 weeks postinfection measured 55 days after compound dosing; assay type: ADME, organism-based, Macaca mulatta; design: dose 5 mg/kg, route intramuscular; conditions: in vivo, 1320 h
[3] = Drug level in kidney of Leishmania braziliensis MHOM/BR/2000/CP13396 infected rhesus monkey at 5 mg/kg, im qd for 21 days administered 9 weeks postinfection measured 55 days after compound dosing; assay type: ADME, organism-based, Macaca mulatta; design: dose 5 mg/kg, route intramuscular; conditions: in vivo, 1320 h
[4] = Drug level in liver of Leishmania braziliensis MHOM/BR/2000/CP13396 infected rhesus monkey at 5 mg/kg, im qd for 21 days administered 9 weeks postinfection measured 95 days after compound dosing; assay type: ADME, organism-based, Macaca mulatta; design: dose 5 mg/kg, route intramuscular; conditions: in vivo, 2280 h
[5] = Drug level in spleen of Leishmania braziliensis MHOM/BR/2000/CP13396 infected rhesus monkey at 5 mg/kg, im qd for 21 days administered 9 weeks postinfection measured 95 days after compound dosing; assay type: ADME, organism-based, Macaca mulatta; design: dose 5 mg/kg, route intramuscular; conditions: in vivo, 2280 h
[6] = Drug level in kidney of Leishmania braziliensis MHOM/BR/2000/CP13396 infected rhesus monkey at 5 mg/kg, im qd for 21 days administered 9 weeks postinfection measured 95 days after compound dosing; assay type: ADME, organism-based, Macaca mulatta; design: dose 5 mg/kg, route intramuscular; conditions: in vivo, 2280 h
[7] = Drug level in liver of Leishmania braziliensis MHOM/BR/2000/CP13396 infected rhesus monkey at 20 mg/kg, im qd for 21 days administered 9 weeks postinfection measured 55 days after compound dosing; assay type: ADME, organism-based, Macaca mulatta; design: dose 20 mg/kg, route intramuscular; conditions: in vivo, 1320 h
[8] = Drug level in spleen of Leishmania braziliensis MHOM/BR/2000/CP13396 infected rhesus monkey at 20 mg/kg, im qd for 21 days administered 9 weeks postinfection measured 55 days after compound dosing; assay type: ADME, organism-based, Macaca mulatta; design: dose 20 mg/kg, route intramuscular; conditions: in vivo, 1320 h
[9] = Drug level in kidney of Leishmania braziliensis MHOM/BR/2000/CP13396 infected rhesus monkey at 20 mg/kg, im qd for 21 days administered 9 weeks postinfection measured 55 days after compound dosing; assay type: ADME, organism-based, Macaca mulatta; design: dose 20 mg/kg, route intramuscular; conditions: in vivo, 1320 h
[10] = Drug level in liver of Leishmania braziliensis MHOM/BR/2000/CP13396 infected rhesus monkey at 20 mg/kg, im qd for 21 days administered 9 weeks postinfection measured 95 days after compound dosing; assay type: ADME, organism-based, Macaca mulatta; design: dose 20 mg/kg, route intramuscular; conditions: in vivo, 2280 h
[11] = Drug level in spleen of Leishmania braziliensis MHOM/BR/2000/CP13396 infected rhesus monkey at 20 mg/kg, im qd for 21 days administered 9 weeks postinfection measured 95 days after compound dosing; assay type: ADME, organism-based, Macaca mulatta; design: dose 20 mg/kg, route intramuscular; conditions: in vivo, 2280 h
[12] = Drug level in kidney of Leishmania braziliensis MHOM/BR/2000/CP13396 infected rhesus monkey at 20 mg/kg, im qd for 21 days administered 9 weeks postinfection measured 95 days after compound dosing; assay type: ADME, organism-based, Macaca mulatta; design: dose 20 mg/kg, route intramuscular; conditions: in vivo, 2280 h
Rhesus monkey [13] = assay: Toxicity in Leishmania braziliensis MHOM/BR/2000/CP13396 infected rhesus monkey assessed as incidence of toxicity symptoms at 5 mg/kg, im qd for 21 days administered 9 weeks postinfection; assay type: organism-based, Macaca mulatta; design: dose 5 mg/kg, route intramuscular; conditions: in vivo
Rhesus monkey [14] = assay: Toxicity in Leishmania braziliensis MHOM/BR/2000/CP13396 infected rhesus monkey assessed as incidence of toxicity symptoms at 20 mg/kg, im qd for 21 days administered 9 weeks postinfection; assay type: organism-based, Macaca mulatta; design: dose 20 mg/kg, route intramuscular; conditions: in vivo
Rhesus monkey [15] = assay: Hepatotoxicity in Leishmania braziliensis MHOM/BR/2000/CP13396 infected rhesus monkey assessed as incidence of hepatocellular acidophilic necrosis at 5 mg/kg, im qd for 21 days administered 9 weeks postinfection; assay type: toxicity, organism-based, Macaca mulatta; design: dose 5 mg/kg, route intramuscular; conditions: in vivo
Rhesus monkey [16] = assay: Hepatotoxicity in Leishmania braziliensis MHOM/BR/2000/CP13396 infected rhesus monkey assessed as incidence of hepatocellular acidophilic necrosis at 20 mg/kg, im qd for 21 days administered 9 weeks postinfection; assay type: toxicity, organism-based, Macaca mulatta; design: dose 20 mg/kg, route intramuscular; conditions: in vivo
Leishmania braziliensis [17] = assay: […] activity against Leishmania braziliensis MHOM/BR/2000/CP13396 infected Rhesus monkey assessed as total decrease in parasite-induced skin lesions at 20 mg/kg, intramuscular daily for 21 days administered 9 weeks post infection; assay type: functional, organism-based; design: dose 20 mg/kg
Leishmania braziliensis [18] = assay: […] activity against Leishmania braziliensis MHOM/BR/2000/CP13396 infected Rhesus monkey assessed as relapse in parasite-induced skin lesions at 5 mg/kg, intramuscular daily for 21 days administered 9 weeks post infection; assay type: functional, organism-based; design: dose 5 mg/kg

Row | Sequence | Drug uptake [1] [ng/g] | Drug uptake [2] [ng/g] | Drug uptake [3] [ng/g] | Drug uptake [4] [ng/g] | Drug uptake [5] [ng/g] | Drug uptake [6] [ng/g] | Drug uptake [7] [ng/g] | Drug uptake [8] [ng/g] | Drug uptake [9] [ng/g] | Drug uptake [10] [ng/g] | Drug uptake [11] [ng/g] | Drug uptake [12] [ng/g] | Activity (Rhesus monkey [13]) | Activity (Rhesus monkey [14]) | Activity (Rhesus monkey [15]) | Activity (Rhesus monkey [16]) | inhibition (Leishmania braziliensis [17]) | Activity (Leishmania braziliensis [18]) [%]
1 | MEGLUMINE ANTIMONATE [listing 1 of 2 here] | 2913 | 1433 | 500 | 669.3 | 476.7 | 152 | 4800 | 1593 | 698.3 | 1800 | 2220 | 313 | Non-toxic | Non-toxic | Toxic | Toxic |  | 
2 | MEGLUMINE ANTIMONATE [listing 2 of 2 here] |  |  |  |  |  |  |  |  |  |  |  |  |  |  |  |  | Active | 50
